Here are results for seven compounds from PMC9134086, “Inhibition of Dipeptidyl Peptidase-4 by Flavonoids: Structure–Activity Relationship, Kinetics and Interaction Mechanism” (Frontiers in Nutrition, 2022).

Where “and” joins values, the source holds several entries; their conditions need not be identical. Equal entries are not always repeated. Where only a bound is given, the exact number is not on record here.

One experiment deals with DPP-4. Also on record: method as in PMID 31441917. The settings on record: test concentration of 200 μM; cited from earlier work.
The target in experiment [1] is T1, DPP-4 (human recombinant) (Homo sapiens, UniProt P27487).
T1 construct: purchased Sigma Aldrich D3446
Kind of experiment: In vitro assay for DPP-4 inhibitory activity (fluorescence, Gly-Pro-AMC).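 As to all read-outs here: fluorescence of released AMC (excitation 360 nm, emission 460 nm) followed kinetically over 30 min at 37 °C in Tris-HCl pH 8.0.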 Format: biochemical. The settings on record: for inhibition at 200 µM / % Inhibition at 200μM: flavonoid 200 μM, mean ± SD, three independent experiments; for inhibition at 200 µM: read-out: % Inhibition at 200μM; for IC50: DPP-4 inhibition, fluorescence method.

Experiment [2] deals with T1, DPP-4 (human recombinant). Kind of experiment: Inhibition kinetic analysis (V vs [DPP-4], Lineweaver-Burk, Dixon and Cornish-Bowden plots). Format: biochemical. As to conditions: for Kiu (uncompetitive inhibition constant): Cornish-Bowden equation; for Inhibition type: Lineweaver-Burk, Dixon and Cornish-Bowden plots, Gly-Pro-AMC 50–200 μM, DPP-4 0.42 mU/mL; for reversibility of the inhibition: plots of V vs [DPP-4] 0.21–0.84 mU/mL, 200 μM Gly-Pro-AMC; for Ki: Dixon equation, read-out: Kic (competitive inhibition constant).

For experiment [3], the target named is T1, DPP-4 (human recombinant). The experiment is described as follows: Fluorescence quenching experiments (Stern-Volmer, binding constant, thermodynamic parameters).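 As to all read-outs here: intrinsic DPP-4 fluorescence emission scanned 290–500 nm, corrected for flavonoid background and inner-filter absorbance, compared without versus with flavonoid quencher.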 The settings on record: for Kq (quenching rate constant): τ0 10^−8 s; for ΔH (enthalpy change) / ΔS (entropy change): from Kb at 298 and 310 K.

T1 sequence (P27487 whole entry): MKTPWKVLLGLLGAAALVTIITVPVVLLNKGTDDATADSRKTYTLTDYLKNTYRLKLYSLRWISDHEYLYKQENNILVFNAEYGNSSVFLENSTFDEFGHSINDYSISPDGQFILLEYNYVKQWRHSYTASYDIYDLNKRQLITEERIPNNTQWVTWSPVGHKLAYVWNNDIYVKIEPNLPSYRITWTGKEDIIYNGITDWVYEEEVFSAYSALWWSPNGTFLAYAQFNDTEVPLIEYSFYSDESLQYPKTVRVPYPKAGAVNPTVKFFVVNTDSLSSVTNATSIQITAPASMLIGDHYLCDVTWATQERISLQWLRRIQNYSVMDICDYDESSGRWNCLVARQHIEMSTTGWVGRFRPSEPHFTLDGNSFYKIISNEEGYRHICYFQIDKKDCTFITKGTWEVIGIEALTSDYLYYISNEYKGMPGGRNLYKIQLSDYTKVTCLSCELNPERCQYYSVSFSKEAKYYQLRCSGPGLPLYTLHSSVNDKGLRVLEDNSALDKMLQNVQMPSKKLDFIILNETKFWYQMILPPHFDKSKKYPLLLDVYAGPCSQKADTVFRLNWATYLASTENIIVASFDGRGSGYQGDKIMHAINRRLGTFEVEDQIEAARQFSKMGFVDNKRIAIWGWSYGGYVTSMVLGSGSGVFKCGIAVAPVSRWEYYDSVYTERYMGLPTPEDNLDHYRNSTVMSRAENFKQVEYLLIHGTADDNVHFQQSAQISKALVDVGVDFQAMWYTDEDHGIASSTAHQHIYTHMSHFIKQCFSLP

On to `O=c1cc(-c2ccc(O)cc2)oc2cc(O)cc(O)c12` [A1, Apigenin], for which, in the experiment on DPP-4, the inhibitory percentage is listed as 44 ± 2%. Also, the inhibition (usually the change of the read-out against control, counted positive when it falls) at 200 µM in experiment [1] is 46.4 ± 1.49%.
For the compound `O=C1C[C@@H](c2ccc(O)cc2)Oc2cc(O)cc(O)c21` [C6, Naringenin], the inhibitory percentage entry in the experiment on DPP-4 is “lower than 20%”. The inhibition at 200 µM in experiment [1] is below 10%.
On to `O=C1c2c(O)cc(O)cc2OC(c2ccc(O)c(O)c2)C1O` (stereo not drawn) [C8, Taxifolin], for which the inhibitory percentage result with DPP-4 is reported as “lower than 20%”. The inhibition at 200 µM in experiment [1] is 19.9 ± 0.65%.
With `O=c1c(O[C@@H]2O[C@H](CO)[C@H](O)[C@H](O)[C@H]2O)c(-c2ccc(O)c(O)c2)oc2cc(O)cc(O)c12` [E4, Hyperoside], in experiment [2], the “Kiu (uncompetitive inhibition constant)” value is 14.8 ± 0.22 10^−5 mol L^−1, the Inhibition type result is given as “Mixed” and the “reversibility of the inhibition” value is reported as “reversible”. In experiment [1], the % Inhibition – broadly, the drop in the measured response relative to a control, in per cent – at 200μM is on record as 62.10 ±0.16% and the inhibition at 200 µM is above 50%. In experiment [3] (298 K), the “KSV (Stern-Volmer quenching constant)” value is 4.83 ± 0.01 ×10^4 L mol^−1, the “n (number of binding sites)” value was 1.04 ± 0.02, the “ΔG (Gibbs free-energy change)” value was -6.6334 kcal/mol and the “Kq (quenching rate constant)” value is given as 4.83 ± 0.01 ×10^12 L mol^−1 s^−1. Further, in experiment [3] (310 K), the “KSV (Stern-Volmer quenching constant)” value was 4.08 ± 0.01 ×10^4 L mol^−1, the “n (number of binding sites)” value is 1.03 ± 0.02, the “ΔG (Gibbs free-energy change)” value was -6.7641 kcal/mol and the “Kq (quenching rate constant)” value was 4.08 ± 0.01 ×10^12 L mol^−1 s^−1. Moreover, in experiment [3], the “ΔH (enthalpy change)” value is -3.3815 kcal/mol and the “ΔS (entropy change)” value is recorded as 45.66 J mol^−1K^−1.
As for `COc1cc(-c2oc3cc(O)cc(O)c3c(=O)c2O[C@@H]2O[C@H](CO[C@@H]3O[C@@H](C)[C@H](O)[C@@H](O)[C@H]3O)[C@@H](O)[C@H](O)[C@H]2O)ccc1O` [E21, Narcissoside], in experiment [2], the “Kiu (uncompetitive inhibition constant)” value is listed as 22.3 ± 0.15 10^−5 mol L^−1, the Ki turned out to be 116 ± 2.1 µM, the Inhibition type entry is listed as “Mixed” and the “reversibility of the inhibition” value is on record as “reversible”. Moreover, the 1/Kic in experiment [2] (reciprocal of competitive inhibition constant) was 0.86 ± 0.02 10^4 L mol^−1. In addition, the 1/Kiu in experiment [2] (reciprocal of uncompetitive inhibition constant) is recorded as 0.44 ± 0.03 10^4 L mol^−1. Further, in experiment [1], the IC50 (commonly the concentration that inhibits the measured activity by half) was 167 µM and < 200 µM; the “% Inhibition at 200μM” value is reported as 57.50 ±1.28%; the inhibition at 200 µM was above 50%. Further, in experiment [3] (298 K), the “KSV (Stern-Volmer quenching constant)” value was 7.212 ± 0.01 ×10^4 L mol^−1, the “n (number of binding sites)” value is 1.22 ± 0.02, the “ΔG (Gibbs free-energy change)” value is -8.059 kcal/mol and the “Kq (quenching rate constant)” value is 7.212 ± 0.01 ×10^12 L mol^−1 s^−1. Moreover, in experiment [3] (310 K), the “KSV (Stern-Volmer quenching constant)” value is listed as 6.389 ± 0.01 ×10^4 L mol^−1, the “n (number of binding sites)” value was 1.21 ± 0.02, the “ΔG (Gibbs free-energy change)” value is -8.305 kcal/mol and the “Kq (quenching rate constant)” value was 6.389 ± 0.01 ×10^12 L mol^−1 s^−1. Also, in experiment [3], the “ΔH (enthalpy change)” value is -1.937 kcal/mol and the “ΔS (entropy change)” value was 85.93 J mol^−1K^−1.
In the case of `O=c1c(O)c(-c2ccc(O)c(O)c2)oc2cc(O)cc(O)c12` [E23, Quercetin], the inhibitory percentage in the experiment on DPP-4 is 46 ± 2%. Besides, the inhibition at 200 µM in experiment [1] was found to be 39.4 ± 0.58%. Besides, the “inhibitory percentage relative to rhamnetin (E27)” value in experiment [1] (ratio of % inhibition at 200 μM, quercetin vs rhamnetin) turned out to be 1.77 times.
Turning to `O=C(/C=C/c1ccc(O)cc1)c1ccc(O)cc1O` [G1, Isoliquiritigenin], in experiment [2], the “Kiu (uncompetitive inhibition constant)” value was 26.7 ± 0.34 10^−5 mol L^−1 and the Ki amounted to 98.2 ± 3.4 µM. Besides, in experiment [1], the IC50 is 150 µM and < 200 µM; the inhibition at 200 µM was above 50%. In addition, the “ΔH (enthalpy change)” value in experiment [3] was -1.901 kcal/mol.
